Data set [1] concerns SKOV-3 cells. Put plainly: Cellular uptake by flow cytometry. The following applies: SKOV-3, Dox 5 μM, Dox-SS-Pyr 50 μM, Dox-SS-[C(WR)4K] 50 μM, 3 h, 37 °C, serum-free medium, triplicate. The format is cell-based, human. Background: Flow cytometry measures light scatter and fluorescence of single cells or particles in a stream.
The test system of data set [2] is human ovarian cancer cells (SKOV-3). Put plainly: Antiproliferative activity / viability assay. As to conditions: SK-OV-3, 24 h, read-out: inhibition of cell proliferation. It is filed as cell-based.
Data set [3] has as its system SKOV-3 cells. Put plainly: Fluorescence microscopy, cellular localization. It is filed as cell-based, human. The following applies: SKOV-3, 5 μM, DAPI nuclear stain.
The test system of the next data set is HT-1080 cells. As to the kind of experiment: Cellular uptake by flow cytometry. It is filed as cell-based, human. The following applies: HT-1080, Dox 5 μM, Dox-SS-Pyr 50 μM, Dox-SS-[C(WR)4K] 50 μM, 3 h, 37 °C, serum-free medium, triplicate.

For the compound `COc1cccc2c1C(=O)c1c(O)c3c(c(O)c1C2=O)C[C@@](O)(C(=O)CO)C[C@@H]3O[C@H]1C[C@H](N)[C@H](O)[C@H](C)O1` [Dox, Doxorubicin], the “cellular uptake (mean fluorescence)” value in the data set with SKOV-3 cells [1] was “higher cellular uptake in SKOV-3 and HT-1080 cells”; in the data set with HT-1080 cells, “higher cellular uptake in SKOV-3 and HT-1080 cells”. Also, the inhibition at 5 µM in data set [2] worked out at 76%. Further, the cellular localization entry in the data set with SKOV-3 cells [3] (after 1 h) and with SKOV-3 cells [3] (after 24 h) was “localized in the nucleus” in each case.

Consider `COc1cccc2c1C(=O)c1c(O)c3c(c(O)c1C2=O)C[C@@](O)(C(=O)CO)C[C@@H]3O[C@H]1C[C@H](NC(=N)CCCS)[C@H](O)[C@H](C)O1` [Dox-SH, thiolated doxorubicin], for which, in the data set on SKOV-3 cells [3] (after 1 h), the cellular localization result was “distributed mostly outside the nucleus”.

Take `COc1cccc2c1C(=O)c1c(O)c3c(c(O)c1C2=O)C[C@@](O)(C(=O)CO)C[C@@H]3O[C@H]1C[C@H](NC(=N)CCCSSc2ccccn2)[C@H](O)[C@H](C)O1` [Dox-SS-Pyr, pyridyl doxorubicin]: the cellular localization result in the data set with SKOV-3 cells [3] (after 1 h) is given as “distributed mostly outside the nucleus”.

The values are drawn from publication PMC8418874 (European journal of medicinal chemistry, 2018).
